Reference: EP0023335A1, “N-Hydroxyalkylimidazoline derivatives, a method for their preparation and their application” (Henkel Kommanditgesellschaft auf Aktien, priority 1979, dated 1981)
In brackets after ≈: the same amount, converted by molar mass.

Columns and labels:
Type in all cases: cell-based
[1] = test system: Candida albicans; assay: Microbicidal action in suspension test; settings: inoculum 1,9 x 10^8 /ml diluted 1:100, room temperature, in H2O
Procedure: (§1) 55,0 g (0,26 Mol) des Imidazolins Nr. 6 der Tabelle 1 wurden in 30 ml Isopropanol gelöst und mit 32,6 g (0,26 Mol) Benzylchlorid in 3 Stunden bei 80'- 85 °C quaterniert. Danach wurde das Isopropanol abdestilliert und das Produkt mit Wasser auf 30 % Aktivsubstanz eingestellt. Die Ergebnisse der Prüfung der mikrobiziden Wirkung einiger Imidazoliniumsalze der Tabelle 2 finden sich in der nachfolgenden Tabelle 3: […]

[2] = test system: Staphylococcus aureus; assay: Microbicidal action in suspension test; settings: inoculum 3,0 x 10^8 /ml diluted 1:100, room temperature, in H2O
Procedure: as §1

[3] = test system: Pseudomonas aeruginosa; assay: Microbicidal action in suspension test; settings: inoculum 1,6 x 10^8 /ml diluted 1:100, room temperature, in H2O
Procedure: as §1

[4] = test system: Escherichia coli; assay: Microbicidal action in suspension test; settings: inoculum 3,7 x 10^8 /ml diluted 1:100, room temperature, in H2O
Procedure: as §1

[5] = test system: Candida albicans ATCC 10 231; assay: Inhibition series in liquid nutrient medium, tube test CII1 (DGHM guidelines); settings: ATCC10, read-out: antimikrobielle Wirkung (Hemmreihen)
Description: (§2) Die antimikrobielle Wirkung der vorstehenden Imidazolin-Acetate geht aus folgender Tabelle hervor:
(§3) Die Prüfung erfolgte in Hemmreihen in flüssigem Nährsubstrat gegenüber den genannten Keimen im Röhrchentest CII1 gemäß Richtlinien der DGHM für chemische Desinfektionsmittel.

[6] = test system: Staphylococcus aureus SG 511; assay: as above; settings: SG511, read-out: antimikrobielle Wirkung (Hemmreihen)
Description: as §2, §3

Row | MIC [5] [µg/mL] | MIC [6] [µg/mL] | SMILES | Abtötungszeit in Minuten ([1]; 10 ppm active) [Minuten] | Abtötungszeit in Minuten ([1]; 50 ppm active) [Minuten] | Abtötungszeit in Minuten ([2]; 10 ppm active) | Abtötungszeit in Minuten ([2]; 50 ppm active) | Abtötungszeit in Minuten ([3]; 10 ppm active) [Minuten] | Abtötungszeit in Minuten ([3]; 50 ppm active) [Minuten] | Abtötungszeit in Minuten ([4]; 10 ppm active) | Abtötungszeit in Minuten ([4]; 50 ppm active) | Abtötungszeit in Minuten ([1]; 100 ppm active) [Minuten] | Abtötungszeit in Minuten ([2]; 100 ppm active) | Abtötungszeit in Minuten ([3]; 100 ppm active) [Minuten] | Abtötungszeit in Minuten ([4]; 100 ppm active)
1 | – | – | CCCCCCCCCCC(O)CN1CC[N+](C)=C1CCCCCCCCC (stereo not shown) [Imidazoliniumsalz 4] | 20 | 20 | 5 Minuten | 5 Minuten | 10 | 10 | 60 Minuten | 10 Minuten | – | – | – | –
2 | 50 (≈ 131 µM) | < 10 | CCCCCCCCCCC(O)CN1CCN=C1CCCCCCCCC (stereo not shown) [Imidazolin-Nr.4-acetat] | – | – | – | – | – | – | – | – | – | – | – | –
3 | – | – | CCCCCCCCCCC(O)CN1CC[N+](C)=C1CCCCCCC (stereo not shown) [Imidazoliniumsalz 3] | 20 | 5 | ≤ 2,5 Minuten | ≤ 2,5 Minuten | 60 | 10 | 5 Minuten | ≤ 2,5 Minuten | – | – | – | –
4 | – | – | CCCCCCCCCC1=[N+](C)CCN1CC(O)CCCCCCCC (stereo not shown) [Imidazoliniumsalz 1] | – | 40 | 60 Minuten | ≤ 2,5 Minuten | – | 20 | x (x = > 120 Minuten) | 20 Minuten | 10 | ≤ 2,5 Minuten | 10 | ≤ 2,5 Minuten
